Results published in article PMC9962283, “The Plant Derived 3-3′-Diindolylmethane (DIM) Behaves as CB2 Receptor Agonist in Prostate Cancer Cellular Models” (International Journal of Molecular Sciences, 2023).
Entries after “also recorded” stand apart in the source; their conditions may differ.

What was measured:
[1] = system: cannabinoid CB1 or CB2 receptors (PC3 cell membranes); assay: [35S]GTPγS binding in PC3 cell membranes; assay type: biochemical, human; details: for EC50: agonist alone, read-out: EC50, stimulation of [35S]GTPγS binding
Description: (§1) Binding assays with [^35S]GTPγS were performed with PC3 or LNCaP cell membranes. Both PC3 and LNCaP cells were removed from flasks by scraping and then frozen as a pellet at −20 °C until required. Before use in a radioligand-binding assay, cells were defrosted, diluted in Tris buffer (50 mM Tris–HCl, 50 mM Tris-Base) and homogenized. Protein assays were performed using a Bio-Rad Dc kit (Bio-Rad©, Watford, UK).
(§2) The measurement of ligand-stimulated [^35S]GTPγS binding to cannabinoid CB1 or CB2 receptors was adapted from methods described previously. The assays were carried out with GTPγS-binding buffer (50 mM Tris–HCl, 50 mM Tris-Base, 5 mM MgCl2, 1 mM ethylenediaminetetraacetic acid, 100 mM NaCl, 1 mM dithiothreitol and 0.1% bovine serum albumin) in the presence of [^35S]GTPγS and GDP, in a final volume of 500 μL. Binding was initiated by the addition of [^35S]GTPγS to the wells. Non-specific binding was measured in the presence of 30 μM GTPγS. The drugs were incubated in the assay for 60 min at 30 °C. The reaction was terminated by a rapid vacuum filtration method using Tris-binding buffer, as described previously, and the radioactivity was quantified by liquid scintillation spectrometry. In all the [^35S]GTPγS-binding assays, we used 0.1 nM [^35S]GTPγS, 30 μM GDP and a protein concentration of 40 μg per well for PC3 and LNCaP cell membranes. Compounds were stored at −20 °C in DMSO.
Paired Student’s t-test or one-way ANOVA analysis of variance (with Tukey’s post hoc analysis) was used where appropriate for cell viability and western blotting data. A value of p < 0.05 was taken as being significant.

[2] = system: cannabinoid CB1 or CB2 receptors (LNCaP cell membranes); assay: [35S]GTPγS binding in LNCaP cell membranes; assay type: biochemical, human; details: agonist alone, read-out: EC50, stimulation of [35S]GTPγS binding
Description: as §1
as §2, with “DMSO. […]” for “DMSO.”

[3] = system: FSK-induced cAMP production in PC3 cells; assay: Cyclic AMP assay (HitHunter), FSK-induced cAMP production in PC3 cells; assay type: cell-based, human; details: for Imax, inhibition of FSK-induced cAMP production / pIC50, inhibition of FSK-induced cAMP production / IC50: agonist alone; for IC50: read-out: IC50, inhibition of FSK-induced cAMP production
Description: The assays were performed using the HitHunter® cAMP assay kit (Eurofins DiscoverX Products, Celle-L’Evescault, France) according to the vendor’s protocol and previous studies. Briefly, cells were detached using cell dissociation buffer, counted and seeded at 2 × 10^4 cells per well in […] of complete medium onto white 96-well plates and incubated at 37 °C and 5% CO2 for approximately 24 h before running the experiment. The assays and the drug dilutions were performed in a 1:1 mixture of DMEM and Ham’s F12 medium without phenol red, containing […] of rolipram and forskolin (FSK; 7b-acetoxy-8,13-epoxy-1a,6b,9 atrihydroxylabd-14-en-11-one). Before running the assay, the medium was discarded, and cells were washed with D-MEM/F-12 medium. Then, cells were treated with the assigned drugs (30 μL per well) and incubated for 30 min at 37 °C and 5% CO2. Finally, cAMP standards and the appropriate mixture of kit components were added (as described by the manufacturer, Eurofins DiscoverX Products, Celle-L’Evescault, France). Plates were incubated overnight at room temperature in the dark. Chemiluminescent signals were detected on a Synergy HT Multi-Mode Microplate Reader (ThermoFisher Scientific, Loughborough, UK).
(§3) Values for half of the maximal effective concentration required to elicit a response (EC50), or for the half maximal inhibitory concentration (IC50) required to inhibit a response, as well as for maximal effect (Emax), standard error of the mean (S.E.M.) and 95% confidence limits of EC50 and IC50, have been calculated by nonlinear regression analysis using the equation for a sigmoid concentration–response curve (GraphPad Prism v5.0, San Diego, CA, USA). Paired Student’s t-test or one-way ANOVA analysis of variance (with Tukey’s post hoc analysis) was used where appropriate for cell viability and western blotting data. A value of p < 0.05 was taken as being significant.

PC3 cells = assay: Cell viability (MTT) assay in PC3 cells; assay type: cell-based, human; details: 24 h, DIM alone
Description: (§4) Human prostate cancer cell lines, LNCaP and PC3, were obtained from the European Collection of Animal Cell Cultures. These were cultured in RPMI 1640 medium (Merck Life Science Ltd., Gillingham, UK) containing 10% (vol:vol) fetal bovine serum and 1% (vol:vol) Penicillin–Streptomycin Solution (10,000 U/mL penicillin and 10 mg/mL streptomycin in 0.9% sodium chloride (Merck Life Science Ltd., Gillingham, UK).
(§5) A standard 3-(4,-5-dimethylthiazol-2-yl)-2,-5-diphenyl tetrazolium bromide (MTT) dye reduction assay was used to assess compounds. Briefly, cells were plated in a flat-bottomed 96-well plate at seeding densities of 6 × 10^3 cells per well for LNCaP cells and 5 × 10^3 cells per well for PC3 cells. Cells were treated the following day with the appropriate agents for 24 h. Following the incubation period, the MTT solution (5 mg/mL in phosphate-buffered saline) was added and incubated for 4 h. The contents of the wells were removed and replaced with 200 μL DMSO to dissolve the MTT formazan crystals. The plates were immediately read at 570 nm in a multi-well plate reader (DynaTech MR5000; Dynex Technologies Ltd., Chantilly, VA, USA).
as §3

LNCaP cells = assay: Cell viability (MTT) assay in LNCaP cells; assay type: cell-based, human; details: 24 h, DIM alone
Description: as §4, §5, §3

phosphor-AKT (Ser473) = assay: Western blot of phospho-AKT (Ser473) levels in PC3 cells; assay type: cell-based, human
Description: (§6) Cells were homogenized in lysis buffer [20 mM Tris, 0.25 M sucrose, 10 mM ethyleneglycol-bis(aminoethylether)-tetraacetic acid, 2 mM ethylenediaminetetraacetic acid, 1 mM sodium orthovanadate, 25 mM sodium β-glycerophosphate and 50 mM sodium fluoride; pH 7.5]. Prior to use, 0.1% (vol:vol), protease Inhibitor Cocktail (Merck Life Science Ltd, Gillingham, UK) was added. A total of 20 μg of protein was electrophoresed through a precast 16% polyacrylamide gel (Thermo Fisher, Oxford, UK) for 2 h and the separated proteins were transferred to nitrocellulose membranes (Bio-Rad, UK), then blocked with 5% (wt:vol) skimmed milk in Tris-buffered saline with 0.1% (vol:vol) Tween 20 (TBST solution) at room temperature and incubated with 1:200 dilution of anti-pAKT (Ser473) antibody (Merck Life Science Limited, Watford, Hertfordshire UK) or 1:200 cleaved-CASP-3 antibody (Insight Biotechnology, UK) at 4 °C overnight. β-Actin (1:20,000) was used as an internal loading control to normalize between lanes during densitometry. The appropriate secondary antibody for pAKT (anti-mouse), cleaved-CASP-3 (anti-mouse) was used at a concentration of 1:5000 (Insight Biotechnology Ltd, Wembley, Middlesex, UK) and incubated at room temperature for 1 h. […]

[4] = system: cleaved caspase 3 (CASP-3); assay: Western blot of cleaved caspase 3 levels in PC3 cells; assay type: cell-based, human
Description: as §6

CB1 receptors = system: CB1 receptors; parameters: method as in PMID 19286662; details: hCB1/CB2-CHO transfected cells; cited from earlier work
CB2 receptors = system: CB2 receptors; parameters: method as in PMID 19286662; details: hCB1/CB2-CHO transfected cells, β-arrestin assay; cited from earlier work

CCCCCCC(C)(C)c1ccc([C@@H]2C[C@H](O)CC[C@H]2CCCO)c(O)c1 [CP 55,940]
EC50 [1]: 6.14 nM | EC50 [2]: 2.56 nM | Imax, inhibition of FSK-induced cAMP production [3]: 9.74 | pIC50, inhibition of FSK-induced cAMP production [3]: 8.314 | IC50 [3]: 4.85 nM

c1ccc2c(Cc3c[nH]c4ccccc34)c[nH]c2c1 [DIM, 3-3′-Diindolylmethane]
Agonist behaviour in [35S]GTPγS binding [1]: full agonist behavior | EC50 [1]: 9.28 nM | EC50 [2]: 32.1 nM | IC50 (PC3 cells): 38900 nM | Imax, cell viability (PC3 cells): 8.50 | pIC50, cell viability (PC3 cells): 4.410 | IC50 (LNCaP cells): 85000 nM | Imax, cell viability (LNCaP cells): -16.63 | pIC50, cell viability (LNCaP cells): 4.071 | Imax, inhibition of FSK-induced cAMP production [3]: 17.36 | pIC50, inhibition of FSK-induced cAMP production [3]: 7.870 | IC50 [3]: 13.5 nM | pAKT level (phosphor-AKT (Ser473); DIM 50 nM): no significant reduction | pAKT level (phosphor-AKT (Ser473); DIM 50 µM): strong and significant reduction | Cleaved CASP-3 level ([4]; DIM 50 nM): significant increase | Cleaved CASP-3 level ([4]; DIM 50 µM): significant increase | Functional behaviour on CB1 receptors (CB1 receptors): slight inverse agonist | Functional behaviour on CB2 receptors (CB2 receptors): partially activate; also recorded: partial agonist

Cc1c(C(=O)NN2CCCCC2)nn(-c2ccc(Cl)cc2Cl)c1-c1ccc(Cl)cc1 [SR1]
Effect of CB1 antagonist on DIM's inhibition of FSK-induced cAMP production [3]: no effect
